In ChEMBL document CHEMBL3232987, “Investigation of Ugi-4CC derived 1H-tetrazol-5-yl-(aryl) methyl piperazinyl-6-fluoro-4-oxo-1,4-dihydroquinoline-3-carboxylic acid: synthesis, biology and 3D-QSAR analysis” (Eur J Med Chem, 2014):
In brackets after ≈: the same amount, converted by molar mass.

How the values were obtained:
Staphylococcus aureus [1] = assay: Antibacterial activity against gentamicin-resistant Staphylococcus aureus ATCC 33592 by NCCLS two-fold dilution method; assay type: functional
Escherichia coli [2] = assay: Antibacterial activity against Escherichia coli after 24 hrs by spectrophotometric analysis; assay type: functional, organism-based; details: Escherichia coli, 24 h; for IC50: read-out: IC50
Staphylococcus aureus [3] = assay: Antibacterial activity against methicillin-resistant Staphylococcus aureus ATCC 700699 after 24 hrs by spectrophotometric analysis; assay type: functional, organism-based; details: Staphylococcus aureus, ATCC 700699, 24 h; for IC50: read-out: IC50
L929 [4] = assay: Cytotoxicity against mouse L929 cells assessed as cell morphological changes at 12.5 to 50 ug/ml after 24 hrs by giemsa staining based phase contrast microscopy; details: l929, 24 h
Klebsiella pneumoniae [5] = assay: Antibacterial activity against Klebsiella pneumoniae by NCCLS two-fold dilution method; assay type: functional
Escherichia coli [6] = assay: Antibacterial activity against Escherichia coli by NCCLS two-fold dilution method; assay type: functional
L929 [7] = assay: Cytotoxicity against mouse L929 cells assessed as cell viability up to MIC 0.39 ug/ml after 24 hrs by MTT assay; assay type: cell-based; details: l929, 24 h
Staphylococcus aureus [8] = assay: Antibacterial activity against Staphylococcus aureus ATCC 29213 after 24 hrs by spectrophotometric analysis; assay type: functional, organism-based; details: Staphylococcus aureus, ATCC 29213, 24 h; for IC50: read-out: IC50
Staphylococcus aureus [9] = assay: Antibacterial activity against Staphylococcus aureus ATCC 25923 after 24 hrs by spectrophotometric analysis; assay type: functional, organism-based; details: Staphylococcus aureus, ATCC 25923, 24 h; for IC50: read-out: IC50
Staphylococcus aureus [10] = assay: Antibacterial activity against Staphylococcus aureus ATCC 29213 by NCCLS two-fold dilution method; assay type: functional
Staphylococcus aureus [11] = assay: Antibacterial activity against methicillin-resistant Staphylococcus aureus ATCC 700699 by NCCLS two-fold dilution method; assay type: functional
Staphylococcus aureus [12] = assay: Antibacterial activity against gentamicin-resistant Staphylococcus aureus ATCC 33592 after 24 hrs by spectrophotometric analysis; assay type: functional, organism-based; details: Staphylococcus aureus, ATCC 33592, 24 h; for IC50: read-out: IC50
Staphylococcus aureus [13] = assay: Antibacterial activity against Staphylococcus aureus ATCC 25923 by NCCLS two-fold dilution method; assay type: functional; details: for MIC: Staphylococcus aureus, ATCC 25923
Klebsiella pneumoniae [14] = assay: Antibacterial activity against Klebsiella pneumoniae after 24 hrs by spectrophotometric analysis; assay type: functional, organism-based; details: Klebsiella pneumoniae, 24 h; for IC50: read-out: IC50
L929 [15] = assay: Cytotoxicity against mouse L929 cells assessed as cell viability up to MIC 0.78 ug/ml after 24 hrs by MTT assay; assay type: cell-based; details: l929, 24 h

| Structure (SMILES) | MIC (Staphylococcus aureus [1]) | MIC (Escherichia coli [2]) | IC50 (Escherichia coli [2]) | MIC (Staphylococcus aureus [3]) | IC50 (Staphylococcus aureus [3]) | MIC (Klebsiella pneumoniae [5]) | MIC (Escherichia coli [6]) | Activity (L929 [7]) | MIC (Staphylococcus aureus [8]) | IC50 (Staphylococcus aureus [8]) | MIC (Staphylococcus aureus [9]) | IC50 (Staphylococcus aureus [9]) | MIC (Staphylococcus aureus [10]) | MIC (Staphylococcus aureus [11]) | MIC (Staphylococcus aureus [12]) | IC50 (Staphylococcus aureus [12]) | -logMIC (Staphylococcus aureus [13]) | MIC (Staphylococcus aureus [13]) | MIC (Klebsiella pneumoniae [14]) | IC50 (Klebsiella pneumoniae [14]) | other results |
| --- | --- | --- | --- | --- | --- | --- | --- | --- | --- | --- | --- | --- | --- | --- | --- | --- | --- | --- | --- | --- | --- |
| CCn1cc(C(=O)O)c(=O)c2cc(F)c(N3CCN(C(c4ccco4)c4nnnn4C4CCCCC4)CC3)cc21 (configuration not stated) | 0.78 µg/mL (≈ 1.42 µM) | 11.6 µg/mL (≈ 21.1 µM) | 4.9 µg/mL (≈ 8.92 µM) | 8.2 µg/mL (≈ 14.9 µM) | 3.7 µg/mL (≈ 6.73 µM) | 6.25 µg/mL (≈ 11.4 µM) | 12.5 µg/mL (≈ 22.7 µM) | Non-toxic | 1.1 µg/mL (≈ 2 µM) | 0.6 µg/mL (≈ 1.09 µM) | 0.45 µg/mL (≈ 0.819 µM) | 0.22 µg/mL (≈ 0.4 µM) | 1.56 µg/mL (≈ 2.84 µM) | 25 µg/mL (≈ 45.5 µM) | 0.88 µg/mL (≈ 1.6 µM) | 0.4 µg/mL (≈ 0.728 µM) | 5.847 | 0.78 µg/mL (≈ 1.42 µM) | 5.2 µg/mL (≈ 9.46 µM) | 2.4 µg/mL (≈ 4.37 µM) | Activity (L929 [4]): Non-toxic |
| O=C(O)c1cn(Cc2ccc(C(F)(F)F)cc2)c2cc(N3CCN(C(c4ccco4)c4nnnn4C4CCCCC4)CC3)c(F)cc2c1=O (configuration not stated) | 0.78 µg/mL (≈ 1.15 µM) | 4.2 µg/mL (≈ 6.18 µM) | 2.9 µg/mL (≈ 4.27 µM) | 50 µg/mL (≈ 73.6 µM) | > 50 µg/mL | 6.25 µg/mL (≈ 9.2 µM) | 6.25 µg/mL (≈ 9.2 µM) | Non-toxic | 0.82 µg/mL (≈ 1.21 µM) | 0.75 µg/mL (≈ 1.1 µM) | 0.52 µg/mL (≈ 0.765 µM) | 0.2 µg/mL (≈ 0.294 µM) | 1.56 µg/mL (≈ 2.3 µM) | 50 µg/mL (≈ 73.6 µM) | 0.78 µg/mL (≈ 1.15 µM) | 0.4 µg/mL (≈ 0.589 µM) | 5.939 | 0.78 µg/mL (≈ 1.15 µM) | 3.4 µg/mL (≈ 5 µM) | 1.7 µg/mL (≈ 2.5 µM) |  |
| CCn1cc(C(=O)O)c(=O)c2cc(F)c(N3CCN(C(c4ccc(OC)c(OC)c4OC)c4nnnn4C4CCCCC4)CC3)cc21 (configuration not stated) | 1.56 µg/mL (≈ 2.4 µM) |  |  | 28.9 µg/mL (≈ 44.5 µM) | 14.6 µg/mL (≈ 22.5 µM) |  |  | Non-toxic | 0.8 µg/mL (≈ 1.23 µM) | 0.7 µg/mL (≈ 1.08 µM) | 1.35 µg/mL (≈ 2.08 µM) | 0.37 µg/mL (≈ 0.569 µM) | 1.56 µg/mL (≈ 2.4 µM) | 25 µg/mL (≈ 38.5 µM) | 0.8 µg/mL (≈ 1.23 µM) | 0.7 µg/mL (≈ 1.08 µM) | 5.318 | 1.56 µg/mL (≈ 2.4 µM) |  |  | Activity (L929 [4]): Non-toxic |
| CCn1cc(C(=O)O)c(=O)c2cc(F)c(N3CCN(C(c4ccncc4)c4nnnn4C(C)(C)C)CC3)cc21 (configuration not stated) | 1.56 µg/mL (≈ 2.92 µM) | 27.7 µg/mL (≈ 51.8 µM) | 20.5 µg/mL (≈ 38.3 µM) | 50 µg/mL (≈ 93.5 µM) | 50 µg/mL (≈ 93.5 µM) | 25 µg/mL (≈ 46.8 µM) | 25 µg/mL (≈ 46.8 µM) | Non-toxic | 0.9 µg/mL (≈ 1.68 µM) | 0.6 µg/mL (≈ 1.12 µM) | 0.9 µg/mL (≈ 1.68 µM) | 0.5 µg/mL (≈ 0.935 µM) | 1.56 µg/mL (≈ 2.92 µM) | 50 µg/mL (≈ 93.5 µM) | 0.7 µg/mL (≈ 1.31 µM) | 0.35 µg/mL (≈ 0.655 µM) | 5.534 | 1.56 µg/mL (≈ 2.92 µM) | 26 µg/mL (≈ 48.6 µM) | 24 µg/mL (≈ 44.9 µM) |  |
| CCn1cc(C(=O)O)c(=O)c2cc(F)c(N3CCN(C(c4ccncc4)c4nnnn4C4CCCCC4)CC3)cc21 (configuration not stated) | 3.12 µg/mL (≈ 5.57 µM) | 4.2 µg/mL (≈ 7.49 µM) | 2.1 µg/mL (≈ 3.75 µM) | > 50 µg/mL | 50 µg/mL (≈ 89.2 µM) | 6.25 µg/mL (≈ 11.1 µM) | 6.25 µg/mL (≈ 11.1 µM) | Non-toxic | 1 µg/mL (≈ 1.78 µM) | 0.6 µg/mL (≈ 1.07 µM) | 1.09 µg/mL (≈ 1.94 µM) | 0.37 µg/mL (≈ 0.66 µM) | 3.12 µg/mL (≈ 5.57 µM) | 50 µg/mL (≈ 89.2 µM) | 0.6 µg/mL (≈ 1.07 µM) | 0.1 µg/mL (≈ 0.178 µM) | 5.555 | 1.56 µg/mL (≈ 2.78 µM) | 6.3 µg/mL (≈ 11.2 µM) | 3.5 µg/mL (≈ 6.24 µM) |  |
| CCn1cc(C(=O)O)c(=O)c2cc(F)c(N3CCN(C(c4ccco4)c4nnnn4C(C)(C)C)CC3)cc21 (configuration not stated) | 0.78 µg/mL (≈ 1.49 µM) | 4.2 µg/mL (≈ 8.02 µM) | 2.9 µg/mL (≈ 5.54 µM) | 46.9 µg/mL (≈ 89.6 µM) | 24.6 µg/mL (≈ 47 µM) | 12.5 µg/mL (≈ 23.9 µM) | 6.25 µg/mL (≈ 11.9 µM) | Non-toxic | 0.6 µg/mL (≈ 1.15 µM) | 0.2 µg/mL (≈ 0.382 µM) | 0.4 µg/mL (≈ 0.764 µM) | 0.3 µg/mL (≈ 0.573 µM) | 0.78 µg/mL (≈ 1.49 µM) | 50 µg/mL (≈ 95.5 µM) | 0.5 µg/mL (≈ 0.955 µM) | 0.2 µg/mL (≈ 0.382 µM) |  | 0.78 µg/mL (≈ 1.49 µM) | 10.1 µg/mL (≈ 19.3 µM) | 5.3 µg/mL (≈ 10.1 µM) | Activity (L929 [4]): Non-toxic; Activity (L929 [15]): Non-toxic |
